This is an account of results in patent US5266596A, “L- or DL-threo-3-(3,4-dihydroxyphenyl)serine for the treatment of urinary incontinence” (priority 1991, dated 1993).

A value given as a limit tells only on which side of the number the result lay.

Broadly, the LD50 is the dose expected to kill half of the subjects tested.

For data set [1] the following is noted: in vivo; cited from earlier work.
Data set [2] can be described thus: Acute toxicity (LD50) in mouse. As to conditions: in vivo.
The subject of a further data set is circulating system. The conditions noted are these: cited from earlier work.
The next data set concerns patients. As to conditions: conventional use; cited from earlier work.
Data set [3] deals with patients with urinary incontinence. Put plainly: Clinical test of L-threo-DOPS in patients with urinary incontinence (clinical effect and side effects). It counts as in vivo, human. The procedure:
L-Threo-DOPS was administered (100 mg×3 times, a 4 weeks) to 13 patients with urinary incontinence in the clinic of urology. For estimating the effect on urinary incontinence and side effects, the patients were investigated medically before and after the treatment with L-Threo-Dops. […] Further, by urodynamic study, the patients were classified into urgent urinary incontinence (7 patients), stress urinary incontinence (3 patients) and other condition (3 patients).

The next data set concerns urinary bladder. Kind of data set: Inner pressure of urinary bladder and urethra measured before and after administration (urodynamics). It counts as in vivo, human. As to conditions: some cases.
In data set [4] the test system is aromatic L-amino acid decarboxylase. As to conditions: cited from earlier work.
The next data set relates to Harmalin-induced tremor. As to conditions: in vivo; cited from earlier work.
Where [5] appears, read: all 13 patients, 100 mg×3 times, 4 weeks.
The mark [6] stands for this setting: all of the cases, summary statement.

Description for urinary bladder: L-Threo-DOPS was administered (100 mg×3 times, a 4 weeks) to 13 patients with urinary incontinence in the clinic of urology. For estimating the effect on urinary incontinence and side effects, the patients were investigated medically before and after the treatment with L-Threo-Dops. The patients were 6 males and 7 females in the range of 35 to 76 years old, and were 51.8 years old in average. Further, by urodynamic study, the patients were classified into urgent urinary incontinence (7 patients), stress urinary incontinence (3 patients) and other condition (3 patients).

For `N[C@H](C(=O)O)[C@H](O)c1ccc(O)c(O)c1` (relative stereo) [DL- or L-threo-DOPS, DL- or L-threo-3-(3,4-dihydroxyphenyl)serine], in data set [1], the “Conversion into 1-NA after administration” value is listed as “gradually converted into 1-NA”; the Distribution after administration result was “distributed both centrally and peripherally”.

Turning to `N[C@H](C(=O)O)[C@H](O)c1ccc(O)c(O)c1` (relative stereo) [active ingredient, DL- or L-threo-3-(3,4-dihydroxyphenyl)serine], the LD50 in data set [2] (ip, intraperitoneal) was ~10000 mg/kg; in data set [2] (oral), ≥ 10000 mg/kg.

Regarding `NC[C@H](O)c1ccc(O)c(O)c1` [1-NA, 1-noradrenaline], the Duration result with circulating system (after injection) was “shorter, rather instantaneous”. Further, the “Effects on circulating system” value in the data set with circulating system (immediately after injection) was “drastic effects on circulating system to cause hypertension and palpitation”.

For the compound `CN(C)CCCN1c2ccccc2CCc2ccccc21` [Imipramine], the Side effects entry with patients was “side effects such as thirst, constipation and nasal obstruction”.

In the case of `N[C@H](C(=O)O)[C@H](O)c1ccc(O)c(O)c1` [L-threo-DOPS, L-threo-3-(3,4-dihydroxyphenyl)serine], the Side effect entry is listed as “None” in data set [3] (Case 1, 300 mg/day × 4 weeks); “None” in data set [3] (Case 2, 300 mg/day × 4 weeks); “None” in data set [3] (Case 3, 300 mg/day × 4 weeks); “None” in data set [3] (Case 4, 300 mg/day × 4 weeks); “None” in data set [3] (Case 5, 300 mg (3) × 4 weeks); “None” in data set [3] (Case 6, 300 mg (3) × 4 weeks). Besides, the Side effect result was “None” in data set [3] (Case 7, 300 mg (3) × 4 weeks); “None” in data set [3] (Case 8, 300 mg (3) × 4 weeks); “None” in data set [3] (Case 9, 300 mg/day × 4 weeks); “None” in data set [3] (Case 10, 300 mg/day × 4 weeks); “None” in data set [3] (Case 11, 300 mg/day × 4 weeks); “None” in data set [3] (Case 12, 300 mg/day × 4 weeks). Further, the Side effect entry in data set [3] (Case 13, 300 mg/day × 4 weeks) is “None”. In addition, the Clinical effect result was “improved” in data set [3] (Case 7, urgent urinary incontinence, 300 mg (3) × 4 weeks); “improved” in data set [3] (Case 8, stress incontinence, 300 mg (3) × 4 weeks); “Improved” in data set [3] (Case 9, stress incontinence, 300 mg/day × 4 weeks); “Improved” in data set [3] (Case 13, Enuresis, 300 mg/day × 4 weeks). Also, the “Cases with disappearance of the symptoms or improvement to a moderate degree or more, total” value in data set [3] (setting [5]) is reported as 9 cases. The “Remaining cases in which L-threo-DOPS was almost ineffective” value in data set [3] (setting [5]) was found to be 4 cases. In data set [3] (all cases, 100 mg×3 times, 4 weeks), the “Side effects such as urine discharge disturbance, palpitation and hypertension” value was “not noted”. Further, the Side effects entry in data set [3] (setting [6]) was “no side effects were noted”. Moreover, the Tendency of dysuria entry in data set [3] (setting [6]) is “even tendency of dysuria was not noted”. Further, the “Cases with clinical effect of more than a slight improvement” value in data set [3] (all patients, 100 mg×3 times, 4 weeks) is on record as 10 out of 13. For the same compound, the “Cases with disappearance of the symptoms or improvement to a moderate degree or more” value is on record as 2 out of 3 in data set [3] (other condition, 100 mg×3 times, 4 weeks); 2 out of 3 in data set [3] (stress urinary incontinence, 100 mg×3 times, 4 weeks); 5 out of 7 in data set [3] (urgent urinary incontinence, 100 mg×3 times, 4 weeks). In addition, the Patient satisfaction entry in data set [3] (patients improved, 100 mg×3 times, 4 weeks) is listed as “highly satisfactory”. Besides, the “Effect on urinary incontinence” value in data set [3] (summary statement) is “excellent effect on urinary incontinence”. In addition, the “Volume of the urinary bladder” value in the data set on urinary bladder is listed as “increased volume of the urinary bladder was confirmed”. For the same compound, in data set [4], the “Decarboxylation by aromatic L-amino acid decarboxylase to natural 1-noradrenaline” value is “undergo decarboxylation by the action of aromatic L-amino acid decarboxylase to produce natural 1-noradrenaline”. The “Action on Harmalin-induced tremor” value in the data set on Harmalin-induced tremor is reported as “inhibitory action on Harmalin-induced tremor”.
